# According to ChEMBL document CHEMBL5212743, “Selectivity Literature for EUbOPEN Chemogenomics Library wave 3” (2023):
# How the values were obtained:
# [1] = target: Sigma non-opioid intracellular receptor 1 (Homo sapiens, UniProt Q99720); experiment: Selectivity interaction (GPCR panel (PDSP screen)) EUB0000289bCl SIGMAR1
# [2] = target: T1, Homeodomain-interacting protein kinase 4 (Homo sapiens) (UniProt Q8NE63); experiment: Selectivity interaction (KinomeScan (DiscoverX)) EUB0000544a HIPK4; conditions: at 1 µM
# T1 sequence (whole entry): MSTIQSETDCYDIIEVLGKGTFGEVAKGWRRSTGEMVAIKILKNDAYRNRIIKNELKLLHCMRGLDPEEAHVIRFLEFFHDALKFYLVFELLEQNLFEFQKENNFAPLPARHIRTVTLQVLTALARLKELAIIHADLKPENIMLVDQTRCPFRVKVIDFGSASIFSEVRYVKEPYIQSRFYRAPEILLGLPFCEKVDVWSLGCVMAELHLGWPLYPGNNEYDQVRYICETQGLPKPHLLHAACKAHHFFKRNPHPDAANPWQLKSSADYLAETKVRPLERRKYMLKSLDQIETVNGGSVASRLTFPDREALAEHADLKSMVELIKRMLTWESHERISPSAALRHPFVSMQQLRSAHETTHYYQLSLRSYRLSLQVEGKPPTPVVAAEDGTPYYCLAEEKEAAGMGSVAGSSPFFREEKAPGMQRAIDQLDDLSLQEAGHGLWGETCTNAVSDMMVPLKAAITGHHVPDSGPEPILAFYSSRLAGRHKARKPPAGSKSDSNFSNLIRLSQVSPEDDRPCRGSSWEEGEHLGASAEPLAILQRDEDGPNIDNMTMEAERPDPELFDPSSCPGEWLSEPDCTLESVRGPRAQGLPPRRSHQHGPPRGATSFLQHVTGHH
# [3] = target: T2, Adenosine receptor A3 (Homo sapiens) (UniProt P0DMS8); experiment: Selectivity interaction (CEREP panel (Eurofins, enzymes and uptake assays)) EUB0000544a ADORA3; conditions: at 10 µM
# T2 sequence (whole entry): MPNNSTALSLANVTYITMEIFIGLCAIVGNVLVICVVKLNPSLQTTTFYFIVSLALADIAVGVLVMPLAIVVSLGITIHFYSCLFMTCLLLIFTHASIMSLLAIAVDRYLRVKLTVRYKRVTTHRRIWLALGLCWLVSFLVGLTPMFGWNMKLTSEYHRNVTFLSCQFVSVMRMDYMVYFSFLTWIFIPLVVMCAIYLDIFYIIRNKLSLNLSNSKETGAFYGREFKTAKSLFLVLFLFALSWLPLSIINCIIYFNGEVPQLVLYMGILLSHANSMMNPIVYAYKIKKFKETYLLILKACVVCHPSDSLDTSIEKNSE
# [4] = target: T3, Gamma-aminobutyric acid receptor subunit alpha-1 (Homo sapiens, UniProt P14867); experiment: Selectivity interaction (GPCR panel (PDSP screen)) EUB0000544a GABRA1
# T3 sequence (P14867 whole entry): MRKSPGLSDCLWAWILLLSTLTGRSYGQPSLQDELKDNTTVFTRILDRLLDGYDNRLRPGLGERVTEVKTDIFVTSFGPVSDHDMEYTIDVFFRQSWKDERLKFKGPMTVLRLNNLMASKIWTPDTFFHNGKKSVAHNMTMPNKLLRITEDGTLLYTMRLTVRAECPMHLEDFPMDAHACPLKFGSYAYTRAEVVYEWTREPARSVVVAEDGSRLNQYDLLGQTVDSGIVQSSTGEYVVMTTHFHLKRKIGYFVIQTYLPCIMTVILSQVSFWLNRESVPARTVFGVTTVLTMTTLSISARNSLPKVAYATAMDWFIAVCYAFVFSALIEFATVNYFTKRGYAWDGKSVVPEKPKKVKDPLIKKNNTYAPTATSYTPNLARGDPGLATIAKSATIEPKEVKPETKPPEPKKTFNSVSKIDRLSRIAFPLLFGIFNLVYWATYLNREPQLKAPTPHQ
# [5] = target: T4, Alpha-2B adrenergic receptor (Homo sapiens) (UniProt P18089); experiment: Selectivity interaction (CEREP panel (Eurofins, binding assay)) EUB0000544a ADRA2B; conditions: at 10 µM
# T4 sequence (whole entry): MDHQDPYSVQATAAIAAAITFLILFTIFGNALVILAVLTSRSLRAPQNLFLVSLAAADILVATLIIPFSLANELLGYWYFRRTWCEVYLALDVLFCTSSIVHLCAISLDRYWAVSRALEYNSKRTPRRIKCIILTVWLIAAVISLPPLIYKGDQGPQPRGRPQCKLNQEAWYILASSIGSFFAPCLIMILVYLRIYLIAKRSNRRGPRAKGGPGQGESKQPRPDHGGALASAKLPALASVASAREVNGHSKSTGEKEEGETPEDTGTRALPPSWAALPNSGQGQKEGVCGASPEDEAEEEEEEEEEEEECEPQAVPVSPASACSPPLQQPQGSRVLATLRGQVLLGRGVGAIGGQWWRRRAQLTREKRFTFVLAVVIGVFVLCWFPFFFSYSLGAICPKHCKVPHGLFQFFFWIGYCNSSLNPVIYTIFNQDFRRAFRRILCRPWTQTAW
# [6] = target: T2, Adenosine receptor A3 (Homo sapiens); experiment: Selectivity interaction (CEREP panel (Eurofins, binding assay)) EUB0000544a ADORA3; conditions: at 10 µM
# [7] = target: T4, Alpha-2B adrenergic receptor (Homo sapiens); experiment: Selectivity interaction (CEREP panel (Eurofins, enzymes and uptake assays)) EUB0000544a ADRA2B; conditions: at 10 µM
# [8] = target: Translocator protein (Homo sapiens) (UniProt P30536); experiment: Selectivity interaction (CEREP panel (Eurofins, binding assay)) EUB0000544a TSPO; conditions: at 10 µM
# Chain of Translocator protein (Homo sapiens) (P30536 whole entry): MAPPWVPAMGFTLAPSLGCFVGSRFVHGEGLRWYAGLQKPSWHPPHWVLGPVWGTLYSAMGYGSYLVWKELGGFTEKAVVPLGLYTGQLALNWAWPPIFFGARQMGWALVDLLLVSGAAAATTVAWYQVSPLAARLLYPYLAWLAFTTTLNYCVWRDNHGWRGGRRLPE
# [9] = target: T3, Gamma-aminobutyric acid receptor subunit alpha-1; experiment: Selectivity interaction (GPCR panel (PDSP screen)) EUB0000547a GABRA1
# [10] = target: Tyrosine-protein kinase ZAP-70 (Homo sapiens) (UniProt P43403); experiment: Selectivity interaction (KinomeScan (DiscoverX)) EUB0000547a ZAP70; conditions: at 1 µM
# Chain of Tyrosine-protein kinase ZAP-70 (Homo sapiens) (P43403 whole entry): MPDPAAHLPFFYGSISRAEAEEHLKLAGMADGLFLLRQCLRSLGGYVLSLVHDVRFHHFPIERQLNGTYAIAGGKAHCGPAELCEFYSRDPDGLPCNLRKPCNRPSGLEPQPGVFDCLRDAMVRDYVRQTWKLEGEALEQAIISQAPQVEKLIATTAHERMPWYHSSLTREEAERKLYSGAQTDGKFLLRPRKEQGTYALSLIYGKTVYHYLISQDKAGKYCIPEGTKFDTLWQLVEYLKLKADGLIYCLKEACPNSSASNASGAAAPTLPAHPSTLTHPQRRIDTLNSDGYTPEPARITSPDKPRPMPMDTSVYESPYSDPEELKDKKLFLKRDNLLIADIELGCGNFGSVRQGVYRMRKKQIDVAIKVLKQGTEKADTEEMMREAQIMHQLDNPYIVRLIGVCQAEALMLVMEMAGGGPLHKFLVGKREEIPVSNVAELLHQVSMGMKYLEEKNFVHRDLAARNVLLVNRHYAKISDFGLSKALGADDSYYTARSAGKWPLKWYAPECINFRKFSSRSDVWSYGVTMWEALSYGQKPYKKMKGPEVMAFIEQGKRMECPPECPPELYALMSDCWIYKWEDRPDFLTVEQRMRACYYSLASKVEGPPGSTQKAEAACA
# [11] = target: T5, Mitogen-activated protein kinase kinase kinase 13 (Homo sapiens) (UniProt O43283); experiment: Selectivity interaction (KinomeScan (DiscoverX)) EUB0000547a MAP3K13; conditions: at 1 µM
# T5 sequence (whole entry): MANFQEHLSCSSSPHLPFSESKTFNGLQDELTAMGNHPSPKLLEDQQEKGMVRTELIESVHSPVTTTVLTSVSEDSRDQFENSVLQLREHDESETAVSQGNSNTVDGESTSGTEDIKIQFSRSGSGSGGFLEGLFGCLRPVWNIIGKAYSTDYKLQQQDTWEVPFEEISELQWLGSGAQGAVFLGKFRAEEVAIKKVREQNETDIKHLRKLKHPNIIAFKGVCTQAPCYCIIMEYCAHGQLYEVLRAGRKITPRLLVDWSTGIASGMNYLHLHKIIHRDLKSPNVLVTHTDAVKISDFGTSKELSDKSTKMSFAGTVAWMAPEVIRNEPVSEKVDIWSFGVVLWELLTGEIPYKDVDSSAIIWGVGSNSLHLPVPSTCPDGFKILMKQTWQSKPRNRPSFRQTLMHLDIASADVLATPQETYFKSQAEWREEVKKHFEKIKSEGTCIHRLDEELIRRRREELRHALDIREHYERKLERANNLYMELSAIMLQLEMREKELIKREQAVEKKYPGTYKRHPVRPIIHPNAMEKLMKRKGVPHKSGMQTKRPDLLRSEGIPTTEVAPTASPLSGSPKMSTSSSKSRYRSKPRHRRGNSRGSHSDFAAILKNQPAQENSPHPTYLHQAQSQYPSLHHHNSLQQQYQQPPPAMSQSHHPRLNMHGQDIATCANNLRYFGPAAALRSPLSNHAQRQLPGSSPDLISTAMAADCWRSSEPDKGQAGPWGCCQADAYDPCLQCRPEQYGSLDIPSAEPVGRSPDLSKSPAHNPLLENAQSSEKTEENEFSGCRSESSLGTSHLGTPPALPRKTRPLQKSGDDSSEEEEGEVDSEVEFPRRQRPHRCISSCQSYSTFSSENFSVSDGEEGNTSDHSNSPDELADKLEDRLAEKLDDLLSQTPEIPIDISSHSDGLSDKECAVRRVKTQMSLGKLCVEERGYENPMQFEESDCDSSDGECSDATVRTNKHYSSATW
# [12] = target: Endothelin receptor type B (Homo sapiens) (UniProt P24530); conditions: at 10 µM
# Chain of Endothelin receptor type B (Homo sapiens) (P24530 whole entry): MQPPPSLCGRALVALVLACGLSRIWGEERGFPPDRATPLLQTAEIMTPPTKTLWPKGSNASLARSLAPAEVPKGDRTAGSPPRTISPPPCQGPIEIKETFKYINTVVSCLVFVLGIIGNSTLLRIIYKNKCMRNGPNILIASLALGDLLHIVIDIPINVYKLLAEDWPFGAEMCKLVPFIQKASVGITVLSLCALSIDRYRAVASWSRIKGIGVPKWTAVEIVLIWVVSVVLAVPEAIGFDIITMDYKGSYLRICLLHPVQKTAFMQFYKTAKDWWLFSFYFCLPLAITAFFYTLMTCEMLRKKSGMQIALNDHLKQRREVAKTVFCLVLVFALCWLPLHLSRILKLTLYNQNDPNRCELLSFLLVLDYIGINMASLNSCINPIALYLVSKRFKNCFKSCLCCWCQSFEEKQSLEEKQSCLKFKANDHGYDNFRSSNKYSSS
# [13] = target: Dual specificity protein kinase CLK4 (Homo sapiens) (UniProt Q9HAZ1); experiment: Selectivity interaction (KinomeScan (DiscoverX)) EUB0000348aPTSA CLK4; conditions: at 1 µM
# Chain of Dual specificity protein kinase CLK4 (Homo sapiens) (Q9HAZ1 whole entry, looked up): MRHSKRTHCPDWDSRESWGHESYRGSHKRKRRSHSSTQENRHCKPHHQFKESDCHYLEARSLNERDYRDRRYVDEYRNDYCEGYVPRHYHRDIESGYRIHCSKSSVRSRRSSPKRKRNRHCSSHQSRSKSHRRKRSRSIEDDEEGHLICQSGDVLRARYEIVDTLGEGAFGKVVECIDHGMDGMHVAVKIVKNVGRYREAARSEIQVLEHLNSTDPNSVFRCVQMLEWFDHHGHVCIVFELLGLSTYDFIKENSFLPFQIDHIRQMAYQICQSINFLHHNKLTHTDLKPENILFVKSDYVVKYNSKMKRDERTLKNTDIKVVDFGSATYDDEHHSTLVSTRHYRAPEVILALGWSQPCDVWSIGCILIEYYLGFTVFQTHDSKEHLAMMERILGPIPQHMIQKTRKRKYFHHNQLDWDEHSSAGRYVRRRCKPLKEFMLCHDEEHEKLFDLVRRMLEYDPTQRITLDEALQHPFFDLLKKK
# [14] = target: T5, Mitogen-activated protein kinase kinase kinase 13 (Homo sapiens); experiment: Selectivity interaction (KinomeScan (DiscoverX)) EUB0000348aPTSA MAP3K13; conditions: at 1 µM
# [15] = target: Delta-type opioid receptor (Homo sapiens) (UniProt P41143); experiment: Selectivity interaction (CEREP panel (Eurofins, receptors, ion channels, and other enzymes)) EUB0000348aPTSA OPRD1; conditions: at 10 µM
# Chain of Delta-type opioid receptor (Homo sapiens) (P41143 whole entry): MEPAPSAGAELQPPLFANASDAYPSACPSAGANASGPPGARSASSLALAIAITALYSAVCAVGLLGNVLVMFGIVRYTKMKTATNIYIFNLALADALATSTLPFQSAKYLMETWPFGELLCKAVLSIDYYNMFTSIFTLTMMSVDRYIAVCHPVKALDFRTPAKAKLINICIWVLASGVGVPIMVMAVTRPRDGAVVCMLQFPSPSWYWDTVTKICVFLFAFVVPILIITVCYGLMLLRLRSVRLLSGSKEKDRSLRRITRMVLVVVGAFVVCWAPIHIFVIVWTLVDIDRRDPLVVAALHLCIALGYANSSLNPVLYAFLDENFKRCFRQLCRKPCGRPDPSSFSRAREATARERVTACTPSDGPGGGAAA
# [16] = target: Cyclin-dependent kinase 5 (Homo sapiens) (UniProt Q00535); experiment: Selectivity interaction (KinomeScan (DiscoverX)) EUB0000348aPTSA CDK5; conditions: at 1 µM
# Chain of Cyclin-dependent kinase 5 (Homo sapiens) (Q00535 whole entry, looked up): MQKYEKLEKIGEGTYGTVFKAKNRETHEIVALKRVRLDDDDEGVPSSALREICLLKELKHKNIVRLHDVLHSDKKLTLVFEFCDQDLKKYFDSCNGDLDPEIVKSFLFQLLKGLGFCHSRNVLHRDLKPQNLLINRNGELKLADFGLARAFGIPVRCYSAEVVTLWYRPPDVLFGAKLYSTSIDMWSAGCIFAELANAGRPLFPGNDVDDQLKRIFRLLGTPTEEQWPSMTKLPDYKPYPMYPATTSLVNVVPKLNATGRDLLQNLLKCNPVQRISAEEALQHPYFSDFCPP
# Histamine H1 receptor [17] = target: T6, Histamine H1 receptor (Homo sapiens, UniProt P35367); experiment: (§1) Selectivity interaction (GPCR panel (PDSP screen)) EUB0000348aPTSA HRH1; conditions: at 10 µM
# T6 sequence (P35367 whole entry): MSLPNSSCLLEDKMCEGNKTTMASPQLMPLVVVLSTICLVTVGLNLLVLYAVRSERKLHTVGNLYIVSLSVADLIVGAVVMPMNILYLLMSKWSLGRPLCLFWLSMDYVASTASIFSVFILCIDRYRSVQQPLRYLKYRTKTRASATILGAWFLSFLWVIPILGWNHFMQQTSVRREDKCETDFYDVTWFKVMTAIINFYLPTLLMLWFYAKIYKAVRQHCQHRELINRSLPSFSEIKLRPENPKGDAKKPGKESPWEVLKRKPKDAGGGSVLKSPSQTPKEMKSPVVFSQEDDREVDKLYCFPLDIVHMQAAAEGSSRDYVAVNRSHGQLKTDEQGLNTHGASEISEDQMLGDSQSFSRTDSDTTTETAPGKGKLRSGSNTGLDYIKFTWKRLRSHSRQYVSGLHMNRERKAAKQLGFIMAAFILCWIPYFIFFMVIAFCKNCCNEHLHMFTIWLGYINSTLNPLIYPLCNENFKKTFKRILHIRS
# Histamine H1 receptor [18] = target: T6, Histamine H1 receptor; experiment: as §1
# [19] = target: T7, G protein-coupled receptor kinase 3 (Homo sapiens) (UniProt P35626); experiment: Selectivity interaction (KinomeScan (DiscoverX)) EUB0000289c ADRBK2; conditions: at 1 µM
# T7 sequence (whole entry): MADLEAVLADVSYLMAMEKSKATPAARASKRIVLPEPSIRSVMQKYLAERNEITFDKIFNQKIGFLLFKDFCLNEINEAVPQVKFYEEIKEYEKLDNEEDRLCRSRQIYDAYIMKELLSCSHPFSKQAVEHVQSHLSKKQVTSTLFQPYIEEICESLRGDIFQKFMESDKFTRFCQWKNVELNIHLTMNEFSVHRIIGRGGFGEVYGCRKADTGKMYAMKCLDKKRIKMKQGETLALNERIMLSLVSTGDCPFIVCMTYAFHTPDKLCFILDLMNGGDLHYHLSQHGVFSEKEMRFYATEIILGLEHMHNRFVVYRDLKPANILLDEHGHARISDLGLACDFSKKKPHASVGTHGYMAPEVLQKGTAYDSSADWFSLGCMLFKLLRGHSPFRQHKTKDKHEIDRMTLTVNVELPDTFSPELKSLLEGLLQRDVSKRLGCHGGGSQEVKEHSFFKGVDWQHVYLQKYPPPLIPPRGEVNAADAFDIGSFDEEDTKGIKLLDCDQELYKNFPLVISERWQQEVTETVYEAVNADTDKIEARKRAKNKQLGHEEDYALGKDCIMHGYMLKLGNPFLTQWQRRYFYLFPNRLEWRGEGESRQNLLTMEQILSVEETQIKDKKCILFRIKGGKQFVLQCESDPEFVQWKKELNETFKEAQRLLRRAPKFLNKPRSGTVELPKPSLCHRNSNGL
# Ephrin type-A receptor 1 = Ephrin type-A receptor 1 (Homo sapiens, UniProt P21709); experiment: Selectivity interaction (KinomeScan (DiscoverX, competition-binding assay)) EUB0000289c EPHA1
# [20] = target: Serine/threonine-protein kinase BRSK2 (Homo sapiens, UniProt Q8IWQ3); experiment: Selectivity interaction (KinomeScan (DiscoverX, competition-binding assay)) EUB0000289c BRSK2
# Chain of Serine/threonine-protein kinase BRSK2 (Q8IWQ3 whole entry): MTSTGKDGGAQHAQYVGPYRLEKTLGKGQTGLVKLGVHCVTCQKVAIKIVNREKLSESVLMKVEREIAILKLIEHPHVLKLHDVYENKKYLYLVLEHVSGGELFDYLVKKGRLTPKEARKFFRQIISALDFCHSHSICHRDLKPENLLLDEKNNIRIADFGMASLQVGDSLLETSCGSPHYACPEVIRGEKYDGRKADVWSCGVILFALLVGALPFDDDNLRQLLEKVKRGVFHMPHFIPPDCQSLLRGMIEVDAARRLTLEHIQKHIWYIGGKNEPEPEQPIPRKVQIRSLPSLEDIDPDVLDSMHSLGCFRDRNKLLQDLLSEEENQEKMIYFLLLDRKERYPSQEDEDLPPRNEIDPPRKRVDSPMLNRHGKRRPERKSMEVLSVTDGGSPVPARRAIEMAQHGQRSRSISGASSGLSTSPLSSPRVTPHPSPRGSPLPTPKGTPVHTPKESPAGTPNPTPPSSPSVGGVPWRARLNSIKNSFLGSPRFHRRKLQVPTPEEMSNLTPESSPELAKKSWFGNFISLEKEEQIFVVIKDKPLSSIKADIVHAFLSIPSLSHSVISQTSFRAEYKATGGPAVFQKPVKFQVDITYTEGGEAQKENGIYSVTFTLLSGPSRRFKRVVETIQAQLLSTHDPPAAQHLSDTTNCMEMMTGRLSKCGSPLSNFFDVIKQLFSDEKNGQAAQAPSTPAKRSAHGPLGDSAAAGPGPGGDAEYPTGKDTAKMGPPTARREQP
# [21] = target: T8, Serine/threonine-protein kinase Nek7 (Homo sapiens, UniProt Q8TDX7); experiment: Selectivity interaction (KinomeScan (DiscoverX, competition-binding assay)) EUB0000289c NEK7
# Target sequence in this assay (Q8TDX7 whole entry): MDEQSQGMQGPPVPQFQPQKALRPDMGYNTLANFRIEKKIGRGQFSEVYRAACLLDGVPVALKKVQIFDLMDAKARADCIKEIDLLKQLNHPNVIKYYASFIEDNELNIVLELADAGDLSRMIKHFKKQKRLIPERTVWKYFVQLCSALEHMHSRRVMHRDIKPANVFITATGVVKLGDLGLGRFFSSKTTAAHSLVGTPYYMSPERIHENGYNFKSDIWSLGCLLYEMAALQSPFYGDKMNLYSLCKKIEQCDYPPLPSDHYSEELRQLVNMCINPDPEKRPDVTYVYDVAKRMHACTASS
# [22] = target: Lysosomal Pro-X carboxypeptidase (Homo sapiens) (UniProt P42785); experiment: Selectivity interaction (CEREP panel (Eurofins, panel of ion channels, receptors, GPCRs, and enzymes (ligand binding assay))) EUB0000289c PRCP; conditions: at 3 µM
# Chain of Lysosomal Pro-X carboxypeptidase (Homo sapiens) (P42785 whole entry): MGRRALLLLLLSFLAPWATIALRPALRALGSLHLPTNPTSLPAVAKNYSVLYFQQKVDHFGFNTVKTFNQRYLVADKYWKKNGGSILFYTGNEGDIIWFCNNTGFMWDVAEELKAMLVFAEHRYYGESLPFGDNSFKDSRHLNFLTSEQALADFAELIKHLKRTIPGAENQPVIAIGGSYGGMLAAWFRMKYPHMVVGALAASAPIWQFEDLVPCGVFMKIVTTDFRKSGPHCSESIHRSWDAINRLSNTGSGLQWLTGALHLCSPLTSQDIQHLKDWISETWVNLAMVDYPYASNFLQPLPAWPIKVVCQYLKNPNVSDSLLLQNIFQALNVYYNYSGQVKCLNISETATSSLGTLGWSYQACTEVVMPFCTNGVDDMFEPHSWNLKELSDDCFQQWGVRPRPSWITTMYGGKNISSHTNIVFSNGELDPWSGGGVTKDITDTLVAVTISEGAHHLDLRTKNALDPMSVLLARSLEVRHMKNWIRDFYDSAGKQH
# [23] = target: Serine/threonine-protein kinase BRSK2 (Homo sapiens) (UniProt Q8IWQ3); experiment: Selectivity interaction (KinomeScan (DiscoverX)) EUB0000289c BRSK2; conditions: at 1 µM
# Chain of Serine/threonine-protein kinase BRSK2 (Homo sapiens) (Q8IWQ3 whole entry): as the sequence (Q8IWQ3 whole entry) above
# [24] = target: T8, Serine/threonine-protein kinase Nek7; experiment: Selectivity interaction (KinomeScan (DiscoverX)) EUB0000289c NEK7; conditions: at 1 µM
# Target sequence in this assay (Q8TDX7 whole entry, looked up): as the sequence (Q8TDX7 whole entry) above
# [25] = target: Ephrin type-A receptor 1 (Homo sapiens) (UniProt P21709); experiment: Selectivity interaction (KinomeScan (DiscoverX)) EUB0000289c EPHA1; conditions: at 1 µM
# Histamine H1 receptor [26] = target: T6, Histamine H1 receptor; experiment: Selectivity interaction (GPCR panel (PDSP screen)) EUB0000289c HRH1
# [27] = target: G protein-coupled receptor kinase 3 (Homo sapiens, UniProt P35626); experiment: Selectivity interaction (KinomeScan (DiscoverX, competition-binding assay)) EUB0000289c ADRBK2
# Chain of Sigma non-opioid intracellular receptor 1 (Q99720 whole entry): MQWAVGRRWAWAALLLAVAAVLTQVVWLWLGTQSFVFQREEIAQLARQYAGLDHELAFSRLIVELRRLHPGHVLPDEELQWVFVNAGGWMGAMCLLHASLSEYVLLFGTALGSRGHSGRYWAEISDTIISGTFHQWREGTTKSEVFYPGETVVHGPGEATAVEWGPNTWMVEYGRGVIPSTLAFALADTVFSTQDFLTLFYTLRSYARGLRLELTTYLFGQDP
compound,measurement,setting,value
CCCCN(CCCC)C(=O)CN1C[C@@H](c2cc(OC)c3c(c2)OCO3)[C@H](C(=O)O)[C@H]1CC(C)(C)CCC,Ki,[1],0.289 µM
COc1ccc2c(c1)O[C@@H](c1ccc(OC)c(OC)c1)C[C@H]2NC(=O)C1(c2ccc3c(c2)OC(F)(F)O3)CC1 [A-1596586],% of control,[2],51%
same,% of inhibition,[3],63.9%
same,Ki,[4],0.0196 µM
same,% of inhibition,[5],63.5%
same,% of inhibition,[6],63.9%
same,% of inhibition,[7],63.5%
same,% of inhibition,[8],95.5%
CCC(=N\O)/C(C)=C/c1ccc(F)c(C)c1 [A-226],Ki,[9],3.69 µM
same,% of control,[10],38%
same,% of control,[11],23%
CCCCN(CCCC)C(=O)CN1C[C@H](c2cc(OC)c3c(c2)OCO3)[C@@H](C(=O)O)[C@@H]1CC(C)(C)CCC,% of inhibition,[12],56%
same,% of control,[13],0%
same,% of control,[14],0%
same,% of inhibition,[15],62%
same,% of control,[16],0%
same,% of inhibition,Histamine H1 receptor [17],54%
same,Ki,Histamine H1 receptor [18],> 10 µM
Cn1cncc1[C@](O)(COc1ccc(C#N)cc1-c1ccc(OC(F)(F)F)cc1)c1ccc(C#N)cc1 [ABT-100],% of control,[19],48%
same,Kd,Ephrin type-A receptor 1,> 10 µM
same,Kd,[20],> 10 µM
same,Kd,[21],> 10 µM
same,% of inhibition,[22],97%
same,% of control,[23],48%
same,% of control,[24],46%
same,% of control,[25],38%
same,Ki,Histamine H1 receptor [26],> 10 µM
same,Kd,[27],> 10 µM
